Measurements reported in patent US9078446B2, “Use of N-(tetrazol-4-yl)- or N-(triazol-3-yl)arylcarboxamides or their salts for controlling unwanted plants in areas of transgenic crop plants being tolerant to HPPD inhibitor herbicides” (BAYER INTELLECTUAL PROPERTY GMBH, priority 2011, dated 2015).

Assays:
Assay type in all cases: in vivo
[1] = system: soybean plants expressing Pseudomonas fluorescens G336W mutant, FMP 27 and FMP 37; assay: Tolerance to HPPD inhibitors of soybean plants expressing tolerant HPPD enzymes; conditions: T1 soybean plants; one week after application
Description: (§1) Genes coding for the selected HPPD were obtained from a member of the group of organisms consisting of Blepharisma japonicum and Kordia algicida and cloned into an appropriate binary vector allowing the integration of DNA into the soybean genome, under the control of the CaMV35S promoter. For the respective cloning procedures, see WO2011076882 (PCT/EP2010/070567), Example 9; for Blepharisma japonicum (FMP37) and WO2011076889 (PCT/EP2010/070575), Example 9 for Kordia algicida (FMP27).
Between the sequence corresponding to the promoter and the sequence coding for the HPPD a DNA sequence coding for a transit peptide to the chloroplast was inserted, in order to add at the N-terminal extremity of the protein a target signal to allow the localization of the HPPD protein into the plant chloroplast. By using the vectors “pFCO112” (Blepharisma japonicum, WO2011076882), pFCO116 (Korida algicida, WO2011076889), and pFCO117” (see Example B2, above), soybean transformation was achieved as described in Example 10 of WO2011076882 (PCT/EP2010/070567) for Blepharisma japonicum (FMP37) and WO2011076889 (PCT/EP2010/070575) for Kordia algicida (FMP27). Seeds from TO events showing tolerance to tembotrione were harvested.
T1 Soybean seeds were transferred to single pots and grown under standard cultivation conditions, see WO2011076882.
Two weeks later, plants will be sprayed with several N-(tetrazol-4-yl)- or N-(triazol-3-yl)arylcarboxamides as defined above.

[2] = system: cotton plants expressing FMP 27 and FMP 37; assay: Tolerance to HPPD inhibitors of cotton plants expressing tolerant HPPD enzymes; conditions: T1 cotton plants; one week after application
Description: as §1, with “the cotton” for “the soybean”, “Example 11;” for “Example 9;”, “Example 11” for “Example 9”
Between the sequence corresponding to the promoter and the sequence coding for the HPPD a DNA sequence coding for a transit peptide to the chloroplast was inserted, in order to add at the N-terminal extremity of the protein a target signal to allow the localization of the HPPD protein into the plant chloroplast. Cotton transformation was achieved as described in Example 12 of WO2011076882 (PCT/EP2010/070567) for Blepharisma japonicum (FMP37) and WO2011076889 (PCT/EP2010/070575) for Kordia algicida (FMP27). Seeds from T0 events showing tolerance to tembotrione were harvested.
T1 Cotton seeds were transferred to single pots and grown under standard cultivation conditions, see WO2011076882 (PCT/EP2010/070567) for Blepharisma japonicum (FMP37) and WO2011076889 (PCT/EP2010/070575) for Kordia algicida (FMP27).
At least 4 weeks later, plants will be sprayed with several N-(tetrazol-4-yl)- or N-(triazol-3-yl)arylcarboxamides as defined above.

[3] = system: non-transformed tobacco plants (Wt); assay: Symptoms due to herbicide application on tobacco plants (damage classes 0-3); conditions: 25 g Al/ha, one week after application
Description: (§2) Seeds harvested from TO transformants will be put on standard soil for germination. Three weeks later plantlets (T1) will be transferred to single pots and grown under standard cultivation conditions (PCT/EP2010/070575, published as WO 2011/076889). Two weeks later, plants were sprayed with several N-(tetrazol-4-yl)- or N-(triazol-3-yl)arylcarboxamides as defined above.
(§3) Tables F1 to F5: Evaluation of the Symptoms Observed Due to the Application of the Herbicides on Transgenic Tobacco Plants, Expressing the Mutant Pseudomonas fluorescens HPPD G336W, the Avena HPPD (AvHPPD), the HPPD from Kordia algicida FMP27 or the HPPD from Blepharisma japonicum (FMP37), Compared to Non-Tranformed Tobacco Plants (“Wt”).
(§4) The herbicides (with “g Al/ha” meaning “g active ingredient/ha”) were applied on 8 to 10 plants originated from 1 to 3 independent transgenic events per transgene.
(§5) The symptoms were evaluated and classified as following: • 3=Very strong damage • 2=Strong damage • 1=Light and transient damage • 0=No damage

[4] = system: transgenic tobacco plants expressing HPPD from Blepharisma japonicum (FMP37); assay: Symptoms due to herbicide application on transgenic tobacco plants (damage classes 0-3); conditions: 25 g Al/ha, one week after application
Description: (§6) Genes coding for the selected HPPD were obtained from a member of the group of organisms consisting of Avena sativa, Pseudomonas fluorescens mutant G336W, Blepharisma japonicum and Kordia algicida and cloned into the binary vector pBin19 allowing the integration of DNA into the tobacco genome, under the control of the CaMV35S promoter. For the cloning procedures, see A2 above for Avena sativa, see B2 above for Pseudomonas fluorescens, mutant G336W, see PCT/EP2010/070567 (published as WO 2011/076882, Example 5; for Blepharisma japonicum (FMP37) and see PCT/EP2010/070575, Example 5 for Kordia algicida (FMP27). Between the sequence corresponding to the promoter and the sequence coding for the HPPD a DNA sequence coding for a transit peptide to the chloroplast was inserted, in order to add at the N-terminal extremity of the protein a target signal to allow the localization of the HPPD protein into the plant chloroplast.
as §2, §3, §4, §5

[5] = system: transgenic tobacco plants expressing mutant Pseudomonas fluorescens HPPD G336W (PfHPPD-G336W); assay: as above; conditions: PfHPPD-G336W line 646; 25 g Al/ha; one week after application
Description: as §6, §2, §3, §4, §5

[6] = system: transgenic tobacco plants expressing tolerant HPPD enzymes; assay: Tolerance of tobacco plants expressing tolerant HPPD enzymes (all transgenes)
Description: as §6, §2, §3, §4, §5

For `Cc1c(C(=O)Nc2nnnn2C)ccc(C(F)(F)F)c1S(C)(=O)=O` [Compound 4-137], the “tolerance of transgenic plants compared to the wild-type soybean plants” value [1] was “superior tolerance”, the “tolerance of transgenic plants compared to the wild-type cotton plants” value [2] was “superior tolerance” and the “number of plants with Damage 0 (No damage)” value (shortened to “number … (No damage)”) [3] was 0. For the same molecule, the “number of plants with Damage 1 (Light and transient damage)” value (“number … (Light and transient damage)” below) [3] was 0, the “number of plants with Damage 2 (Strong damage)” value (shortened to “number … (Strong damage)”) [3] was 0 and the “number of plants with Damage 3 (Very strong damage)” value (“number … (Very strong damage)” below) [3] was 10. The “number … (No damage)” value ([4]; FMP37 line 749) was 8, the “number … (Light and transient damage)” value ([4]; FMP37 line 749) was 2 and the “number … (Strong damage)” value ([4]; FMP37 line 749) was 0. For the same molecule, the “number … (Very strong damage)” value ([4]; FMP37 line 749) was 0, the “number … (No damage)” value ([4]; FMP37 line 754) was 0 and the “number … (Light and transient damage)” value ([4]; FMP37 line 754) was 1. The “number … (Strong damage)” value ([4]; FMP37 line 754) was 1, the “number … (Very strong damage)” value ([4]; FMP37 line 754) was 8 and the “number … (No damage)” value ([4]; FMP37 line 795) was 2. The “number … (Light and transient damage)” value ([4]; FMP37 line 795) was 0, the “number … (Strong damage)” value ([4]; FMP37 line 795) was 2 and the “number … (Very strong damage)” value ([4]; FMP37 line 795) was 6. For the same molecule, the “number … (No damage)” value [5] was 5, the “number … (Light and transient damage)” value [5] was 2 and the “number … (Strong damage)” value [5] was 0. For the same molecule, the “number … (Very strong damage)” value [5] was 3, the “tolerance of the transgenic tobacco plants (symptoms due to application of the herbicide)” value ([6]; T1 plants sprayed, evaluated one week after application) was “good tolerance” and the “sensitivity of transgenic tobacco plants compared to wild type (wt) plants” value ([6]; all tested independent lines, agronomically relevant dose) was “less sensitive”.
